The results in this text go back to US7968565B2, “Therapeutic combinations comprising (+)-1,4-dihydro-7-[(3S,4S)-3-methoxy-4-(methylamino)-1-pyrrolidinyl]-4-oxo-1-(2-thiazolyl)-1,8-naphthyridine-3-carboxylic acid” (Sunesis Pharmaceuticals, Inc., priority 2004, dated 2011).

One data set has as its system various cells. As to the kind of experiment: Cytotoxicity of SNS-595 in various cells. It is filed as cell-based. The text has this:
SNS-595 is a cell cycle inhibitor and arrests cells at the G2 interface. Initially, the activity of SNS-595 was believed due to topoisomerase II inhibition.
As shown by FIG. 1, ATM, ATR, and DNA-PK are three central DNA sensors/effectors that depending on the level of DNA damage that is detected within an individual cell, direct the cell into one of several outcomes including DNA repair, G2 arrest or apoptosis.

The next data set concerns non-proliferating cells. As to the kind of experiment: Cytotoxicity to non-proliferating cells. It is filed as cell-based. The conditions noted are these: doses cytotoxic to proliferating cells. The text has this: Treatment with SNS-595 results in an increase in the number of double-strand DNA breaks that form during the S phase. This damage impedes the ability of the cell to synthesize DNA and lengthens the time the cell spends in the S phase. […] When the DNA damage is sufficiently severe such that the double-strand breaks cannot be repaired through non-homologous end joining (NHEJ), the cell rapidly enters apoptosis. Some cells are able to reach the G2 phase but are subsequently arrested (mediated by cdc2/cyclin B) because the cells are too damaged to enter into the M phase and also eventually becomes apoptotic.

Data set [1] relates to stable variant of HCT-116 cells. In words: Sensitivity of SNS-595-resistant HCT-116 variant. The format is cell-based. The conditions noted are these: cells with induced resistance. The text has this: Consistent with this mechanism, cells with induced resistance to SNS-595 also have alterations in the DNA-PK pathway. […] Conversely, decreased levels of DNA-PK or its activity (e.g. in the presence of an inhibitor) is associated with an increased sensitivity to SNS-595.

The subject of data set [2] is DNA-PK pathway. As to the kind of experiment: Dose-dependent responses of DNA-PK pathway members in HCT 116 cells (FIG. 2). The format is cell-based. The conditions noted are these: H2AX, c-Abl, p53, p73, p21, caspase-9, caspase-3. The text has this:
This damage impedes the ability of the cell to synthesize DNA and lengthens the time the cell spends in the S phase. […] When the DNA damage is sufficiently severe such that the double-strand breaks cannot be repaired through non-homologous end joining (NHEJ), the cell rapidly enters apoptosis. Some cells are able to reach the G2 phase but are subsequently arrested (mediated by cdc2/cyclin B) because the cells are too damaged to enter into the M phase and also eventually becomes apoptotic.

Data set [3] can be described thus: Pharmacokinetics of SNS-595 in cancer patients. The format is in vivo, human. How it is done: SNS-595 was administered to enrolled patients for up to six cycles. A cycle is defined as a three-week period, with SNS-595 administered on the first day of each cycle (day 0), followed by at least 21 days of observation. SNS-595 was administered to cohorts of at least 3 patients and dose escalation occurred by sequential cohort.

The subject of data set [4] is DNA-PK pathway. As to the kind of experiment: Pharmacodynamic study, HCT116 xenograft tumors, Western blots (FIG. 3). It is filed as in vivo. To be noted: nu/nu mice, IV bolus 20 or 40 mg/kg, 1-24 hours post dose. On the procedure:
Nu/nu mice (ca. 25 grams) were injected with HCT116 cells (which were obtained from the ATCC) in the hind flank at 5 million cells with 50% matrigel (Becton-Dickinson). Tumors were allowed to grow to 400 mm^3. Xenograft bearing animals were then given either an IV bolus injection of SNS-595 (20 or 40 mg/kg) in the tail vein or a saline vehicle. At prescribed time points (1, 2, 4, 8, 16, and 24 hours post dose), animals were anesthetized with CO2, blood was taken via terminal cardiac puncture, and animals were sacrificed. Tumors were excised, pulverized using liquid nitrogen-cooled mortar and pestle, and flash-frozen in liquid nitrogen. Tumor lysates were made from pulverized samples by addition of lysis buffer. The protein concentrations of the DNA-PK pathway members were determined by Western blots. Approximately 25 micrograms of protein was loaded per lane on an SDS-PAGE gel. Proteins were separated by gel electrophoresis, blotted onto nitrocellulose membranes, and detected using the following antibodies: H2AX, phosphorylated at S139 (Cell Signaling, catalog no. 2577L); p53, phosphorylated at S15 (Cell Signaling, catalog no. 9284S); p53, phosphorylated at S37 (Cell Signaling, catalog no. 9289S); p21 (Cell Signaling, catalog no. 2946); cdc2, phosphorylated at Y15 (Calbiochem, catalog no. 219437); cyclin B (Santa Cruz, catalog no.sc-594 (H-20)); p73, phosphorylated at […] […]
A general note: Immunoblotting shows a protein as a band on a membrane.

`CN[C@H]1CN(c2ccc3c(=O)c(C(=O)O)cn(-c4nccs4)c3n2)C[C@@H]1OC` [SNS-595, (+)-1,4-dihydro-7-[(3S,4S)-3-methoxy-4-(methylamino)-1-pyrrolidinyl]-4-oxo-1-(2-thiazoyl)-1,8-naphthyridine-3-carboxylic acid]: in the data set with various cells, the 50% effective concentration (EC50) (as a rule, the concentration needed to bring the measured effect to its halfway point) was in the range of 200 to 300 nM and the “difference in potency, cell EC50 versus biochemical inhibition of topoisomerase II” value is given as “at least a ten-fold difference”. Further, in the data set with various cells (caffeine inhibits ATM and ATR), the “EC50 in caffeine treated cells (G2 arrest abrogated) versus untreated cells” value is listed as “essentially no difference in EC50 values”. In addition, the “activity in 2-deoxyglucose treated cells versus untreated cells” value with various cells (topoisomerase II levels modulated with 2-deoxyglucose) is recorded as “essentially no difference in activity”. Moreover, the “lethality to non-proliferating cells” value in the data set on non-proliferating cells is “non-lethal”. The “sensitivity to SNS-595 relative to HCT-116 cells” value in data set [1] is given as “approximately ten fold less sensitive”. Also, the “activation of DNA-PK mediated repair and apoptotic machinery” value with DNA-PK pathway [2] is given as “activates, in a dose dependent manner”. Further, in data set [3] (dose escalation by cohort), the “relation of dose with AUC∞” value was “linear”. Further, the MRT inf in data set [3] (human, intravenous, plasma, dose 3 mg/m2, mean, read-out: MRTINF_obs) was 22 h. This molecule gave an MRTINF_obs in data set [3] (plasma, dose 6 mg/m2, mean) of 29.05 h. In data set [3] (plasma, dose 12 mg/m2, mean), this molecule displayed a C0 of 2888.66 ng/mL and an MRTINF_obs of 23.67 h. Also, the “levels of DNA-PK pathway members in tumors” value in the data set with DNA-PK pathway [4] is reported as “activated”.
